What is called melting point is the temperature of the solid-liquid transition. For orientation: Ki means a measure of affinity in units of concentration, obtained from inhibition or displacement.

Results on six molecules are retold here after publication PMC6445240, “Design, synthesis and evaluation of ^18F-labeled cationic carbonic anhydrase IX inhibitors for PET imaging” (Journal of Enzyme Inhibition and Medicinal Chemistry, 2017).

Each structure is given as a SMILES string. Where a name gives a salt, the structure may show the parent alone.

One series concerns the target CA-I (Homo sapiens, UniProt P00915). In words: stopped-flow CO2 hydration assay, CA-I. Format: biochemical. The conditions noted are these: errors 5–10% from three assays, read-out: Inhibition constant (Ki) CA-I.
Another series has as its target CA-II (Homo sapiens, UniProt P00918). In words: stopped-flow CO2 hydration assay, CA-II. Format: biochemical. The conditions noted are these: errors 5–10% from three assays, read-out: Inhibition constant (Ki) CA-II.
Another series addresses CA-IV (Homo sapiens, UniProt P22748). In words: stopped-flow CO2 hydration assay, CA-IV. Format: biochemical. The conditions noted are these: errors 5–10% from three assays, read-out: Inhibition constant (Ki) CA-IV.
The next series has as its target CA-IX (Homo sapiens, UniProt Q16790). In words: stopped-flow CO2 hydration assay, CA-IX. The conditions noted are these: errors 5–10% from three assays, read-out: Inhibition constant (Ki) CA-IX. Format: biochemical.

Chain of CA-I (P00915 whole entry): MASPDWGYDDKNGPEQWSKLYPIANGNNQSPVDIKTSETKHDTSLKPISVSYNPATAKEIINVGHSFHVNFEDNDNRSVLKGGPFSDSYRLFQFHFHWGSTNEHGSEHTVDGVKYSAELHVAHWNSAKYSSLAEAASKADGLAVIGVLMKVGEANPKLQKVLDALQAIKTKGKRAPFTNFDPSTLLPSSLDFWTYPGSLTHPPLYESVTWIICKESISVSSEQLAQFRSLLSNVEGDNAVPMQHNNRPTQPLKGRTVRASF
Chain of CA-IV (P22748 19-312): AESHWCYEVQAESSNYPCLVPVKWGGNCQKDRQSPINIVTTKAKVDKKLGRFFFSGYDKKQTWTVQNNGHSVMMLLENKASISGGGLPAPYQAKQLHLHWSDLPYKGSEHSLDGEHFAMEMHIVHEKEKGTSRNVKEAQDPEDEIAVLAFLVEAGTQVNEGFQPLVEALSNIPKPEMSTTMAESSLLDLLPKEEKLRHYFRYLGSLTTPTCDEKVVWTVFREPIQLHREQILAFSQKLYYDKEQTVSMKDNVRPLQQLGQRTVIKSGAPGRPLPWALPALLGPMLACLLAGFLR

In turn, `C[N+](C)(Cc1ccc(F)cc1)Cc1ccc(C(=O)NCc2cccc(S(N)(=O)=O)c2)cc1` (as salt: bromide) [Compound 1, N-4-[[[3-(aminosulfonyl)benzyl]amino]carbonyl] benzyl-N,N-dimethyl-4-fluorobenzylammonium bromide] came in with a melting point of 226 °C.

Consider `C[N+](C)(Cc1ccc(F)cc1)Cc1ccc(C(=O)NCCc2ccc(S(N)(=O)=O)cc2)cc1` (as salt: bromide) [Compound 2, N-4-[[[2-[4-(aminosulfonyl)phenyl]ethyl]amino]carbonyl]benzyl-N,N-dimethyl-4-fluorobenzylammonium bromide], for which the melting point came to 215 °C.

Take `C[N+](C)(Cc1ccc(F)cc1)Cc1ccc(C(=O)NCc2ccc(S(N)(=O)=O)cc2)cc1` (as salt: bromide) [Compound 3, N-4-[[[4-(aminosulfonyl)benzyl]amino]carbonyl] benzyl-N,N-dimethyl-4-fluorobenzylammonium bromide]: the melting point turned out to be 228 °C.

Regarding `C[N+](C)(Cc1ccc(F)cc1)Cc1ccc(C(=O)NCc2cccc(S(N)(=O)=O)c2)cc1` [Compound 1, N-4-[[[3-(aminosulfonyl)benzyl]amino]carbonyl] benzyl-N,N-dimethyl-4-fluorobenzylammonium bromide], the inhibition constant Ki on CA-I was 0.89 µM; at CA-II, 0.72 µM; on CA-IV, > 50 µM; at CA-IX, 0.44 µM.

As to `C[N+](C)(Cc1ccc(F)cc1)Cc1ccc(C(=O)NCCc2ccc(S(N)(=O)=O)cc2)cc1` [Compound 2, N-4-[[[2-[4-(aminosulfonyl)phenyl]ethyl]amino]carbonyl]benzyl-N,N-dimethyl-4-fluorobenzylammonium bromide], the inhibitory constant (Ki) at CA-I came to 0.52 µM; on CA-II, 0.07 µM; on CA-IV, 9.54 µM; at CA-IX it was 0.22 µM.

Take `C[N+](C)(Cc1ccc(F)cc1)Cc1ccc(C(=O)NCc2ccc(S(N)(=O)=O)cc2)cc1` [Compound 3, N-4-[[[4-(aminosulfonyl)benzyl]amino]carbonyl] benzyl-N,N-dimethyl-4-fluorobenzylammonium bromide]: the Ki came out at 0.78 µM on CA-I, 0.48 µM on CA-II, 3.63 µM at CA-IV and 0.96 µM at CA-IX.
